Assay type in all cases: cell-based
Assay [1] deals with Aspergillus niger. The experiment in a line: MIC, YAG medium, Aspergillus niger. Particulars: Aspergillus niger; YAG medium; read-out: MIC A Niger 1. As to the method:
(§1) Measurement of Minimum Inhibitory Concentrations (MICs)
(§2) Between 1 and 5 mgs of compound were accurately weighed out into a sterile Eppendorf tube. The compound was dissolved in DMSO to give a solution containing 5 mg/ml. Tubes were stored at −20° C. until required.
(§3) On the day of testing thawed solutions were vortex mixed to ensure homogeneity. 30 μl of solution was removed and added to 570 μl of sterile water in a separate sterile Eppendorf. The thoroughly mixed solution was used to prepare a series of doubling dilutions in water, in a deep well plate. Eleven replicate plates were prepared using a Minitrak by aspirating 20 μl from each well into eleven clear polystyrene 96 well plates.
(§4) Spores of Aspergillus spp (Aspergillus fumigatus, Aspergillus terreus, Aspergillus niger and Aspergillus flavus) were harvested from cultures grown on Sabarauds agar for 5 days, and resuspended in PBS/Tween 80 to approx 1×10^7 cfu/ml Other filamentous fungi (Fusarium solani, Scedosporium spp., Trichophyton spp., Absidia corymbifera), were grown on Sabarauds agar for 2-10 days and spores/hyphae resuspended in PBS/Tween to give approx 1×10^7 cfU/ml. Candida species (Candida albicans, Candida glabrata, Candida krusei, Candida parapsilosis and Candida tropicalis) were grown on Sabarauds agar, cells were harvested from the agar using a sterile loop and resuspended in PBS/Tween 80 to approx 1×10^6 cfu/ml. Each organism suspension was diluted in RPMI medium, containing 2% glucose and 0.135M MOPS buffer (pH7.0) to 2×10^4 cfu/ml for Aspergillus spp and other filamentous fungi and 2×10^3 cfu/ml for yeast. 80 μl of an organism suspension was added to each well of the plate containing drug dilutions.
(§5) This produced MIC plates with a drug range 50-0.05 mg/L and organism inocula of 1-2×10^4 cfu/ml for Aspergillus spp and other filamentous fungi and 1-2×10^3 cfu/ml for yeasts. All plates were incubated for 24-48 hrs at 35° C. Growth was assessed by monitoring the optical density at 485 nm for each well. The MIC of a compound is the lowest drug concentration that inhibits growth of an organism by >80% compared with a drug free control. MICs are recorded as mg/L. Other growth media can be used for susceptibility testing, and the activity of the described compounds can also be assessed in a medium comprising, 1% glucose, 1% ammonium chloride and 0.5% yeast extract (YAG medium). To perform MIC tests in this medium, dilutions of compounds are prepared in microtitre plates as described above. Fungal strains to be tested are grown and harvested in an identical manner to that described above, each organism suspension is then diluted in YAG medium to 2×10^4 cfu/ml for Aspergillus spp and other filamentous fungi and 2×10^3 cfu/ml for yeast. 80 μl of an organism suspension was added to each well of the plate containing drug dilutions. This produced MIC plates with a drug range 50-0.05 mg/L and organism inocula of 1-2×10^4 cfu/ml for Aspergillus spp and other filamentous fungi and 1-2×10^3 cfu/ml for yeasts. All plates were incubated for 24 hrs at 35° C. Growth was assessed by monitoring the optical density at 485 nm for each well. The MIC of a compound is the lowest drug concentration that inhibits growth of an organism by >70% compared with a drug free control. MICs are recorded as mg/L. In cases where the MIC of an organism is […]0.05 mg/L the MIC is repeated using a concentration range of 0.5-0.0005 mg/L. MIC tests in YAG medium have more clear-cut endpoints and have slightly lower MICS than those performed in RPMI medium.
(§6) The following organisms were tested: Aspergillus fumigatus AF293 and Aspergillus fumigatus AF210, Aspergillus niger, Aspergillus terreus, Aspergillus favus, Candida albicans, Candida krusei, Candida tropicalis, Candida glabrata, Candida parapsilosis, Trichophyton rubrum, Trichophyton mentagrophytes, Scedosporium prolificans, Scedosporium apiospermum, Absidia corymbifera, Fusarium solani.

Assay [2] has as its system Aspergillus terreus. The assay can be described thus: MIC, YAG medium, Aspergillus terreus. Particulars: Aspergillus terreus; YAG medium; read-out: MIC A Terreus 4. The method, then: as §1, §2, §3, §4, §5, §6
For assay [3], the system named is Aspergillus fumigatus AF210. The assay can be described thus: MIC, YAG medium, Aspergillus fumigatus AF210. Particulars: Aspergillus fumigatus, AF210; YAG medium; read-out: MIC A Fum. 210. The method, then:
as §1, §2, §3, §4, §5, §6

Assay [4] relates to Aspergillus flavus. The experiment in a line: MIC, YAG medium, Aspergillus flavus. The settings on record: Aspergillus flavus; YAG medium; read-out: MIC A Flavus 01. As to the method:
as §1, §2, §3, §4, §5, §6

Assay [5] has as its system Aspergillus fumigatus AF293. The assay can be described thus: MIC, YAG medium, Aspergillus fumigatus AF293. The settings on record: Aspergillus fumigatus, AF293; YAG medium; read-out: MIC A Fum. 293. As to the method:
as §1, §2, §3, §4, §5, §6

≈ marks a conversion by molar mass, not a printed value.

From patent US8486962B2, “Antifungal agents” (F2G Ltd., priority 2005, dated 2013) come the findings set out here.

As for `COc1ccc(NC(=O)C(=O)c2c(-c3ccncc3)cc3ccccn23)c(OC)c1` [Example 172, N-(2,4-Dimethoxy-phenyl)-2-oxo-2-(2-pyridin-4-yl-indolizin-3-yl)-acetamide], the MIC (usually the lowest concentration found to suppress growth) in assay [1] worked out at 3.1 mg/L (≈ 7.72 µM); in assay [2] it was 1.6 mg/L (≈ 3.99 µM); in assay [3], 25 mg/L (≈ 62.3 µM); in assay [4], 0.4 mg/L (≈ 0.996 µM); in assay [5], 25 mg/L (≈ 62.3 µM).
As to `COc1ccc(NC(=O)C(=O)c2c(-c3cccnc3)cc3ccccn23)c(OC)c1` [Example 174, N-(2,4-Dimethoxy-phenyl)-2-oxo-2-(2-pyridin-3-yl-indolizin-3-yl)-acetamide], the MIC in assay [1] was found to be 1.6 mg/L (≈ 3.99 µM); in assay [2], 0.2 mg/L (≈ 0.498 µM); in assay [3] it was 3.1 mg/L (≈ 7.72 µM); in assay [4], 0.1 mg/L (≈ 0.249 µM); in assay [5], 6.25 mg/L (≈ 15.6 µM).
`Cc1ccc(NC(=O)C(=O)c2c(-c3ccccn3)cc3ccccn23)cc1` [Example 175, 2-Oxo-2-(2-pyridin-2-yl-indolizin-3-yl)-N-p-tolyl-acetamide]: the minimum inhibitory concentration (MIC) in assay [1] was over 50 mg/L; in assay [2], 3.1 mg/L (≈ 8.72 µM); in assay [3], 3.1 mg/L (≈ 8.72 µM); in assay [4], over 50 mg/L; in assay [5] it was over 50 mg/L.
As to `COc1ccc(NC(=O)C(=O)c2c(-c3ccccn3)cc3ccccn23)c(OC)c1` [Example 176, N-(2,4-Dimethoxy-phenyl)-2-oxo-2-(2-pyridin-2-yl-indolizin-3-yl)-acetamide], the minimal inhibitory concentration (MIC) is 3.1 mg/L (≈ 7.72 µM) in assay [1]; over 50 mg/L in assay [2]; over 50 mg/L in assay [3]; over 50 mg/L in assay [4]; over 50 mg/L in assay [5].
In the case of `COC(=O)c1ccc(OC(=O)C(=O)c2c(-c3ccccc3)cc3ccccn23)cc1` [Example 177, 4-[2-Oxo-2-(2-phenyl-indolizin-3-yl)-acetoxy]-benzoic acid methyl ester], the MIC in assay [1] is 6.25 mg/L (≈ 15.6 µM); in assay [2], 6.25 mg/L (≈ 15.6 µM); in assay [3], over 50 mg/L; in assay [4] it was over 50 mg/L; in assay [5] it was 50 mg/L (≈ 125 µM).
In the case of `O=C(NC1CCCCC1)C(=O)c1c(-c2ccccc2)cc2ccccn12` [Example 178, N-Cyclohexyl-2-oxo-2-(2-phenyl-indolizin-3-yl)-acetamide], the MIC in assay [1] was determined as 0.2 mg/L (≈ 0.577 µM); in assay [2], 0.1 mg/L (≈ 0.289 µM); in assay [3], 0.8 mg/L (≈ 2.31 µM); in assay [4], 1.6 mg/L (≈ 4.62 µM); in assay [5], 0.8 mg/L (≈ 2.31 µM).
For `CNC(=O)C(=O)c1c(-c2ccccc2)cc2ccccn12` [Example 179, N-Methyl-2-oxo-2-(2-phenyl-indolizin-3-yl)-acetamide], the MIC in assay [1] was over 50 mg/L; in assay [2], 6.25 mg/L (≈ 22.5 µM); in assay [3], 12.5 mg/L (≈ 44.9 µM); in assay [4] it was 25 mg/L (≈ 89.8 µM); in assay [5] it was 12.5 mg/L (≈ 44.9 µM).
`CC(C)NC(=O)C(=O)c1c(-c2ccccc2)cc2ccccn12` [Example 180, N-Isopropyl-2-oxo-2-(2-phenyl-indolizin-3-yl)-acetamide]: the MIC in assay [1] is 3.1 mg/L (≈ 10.1 µM); in assay [2] it was 6.25 mg/L (≈ 20.4 µM); in assay [3] it was 6.25 mg/L (≈ 20.4 µM); in assay [4], over 50 mg/L; in assay [5] it was 6.25 mg/L (≈ 20.4 µM).
Regarding `COCCNC(=O)C(=O)c1c(-c2ccccc2)cc2ccccn12` [Example 181, N-(2-Methoxy-ethyl)-2-oxo-2-(2-phenyl-indolizin-3-yl)-acetamide], the MIC in assay [1] worked out at 25 mg/L (≈ 77.6 µM); in assay [2] it was 25 mg/L (≈ 77.6 µM); in assay [3], 25 mg/L (≈ 77.6 µM); in assay [4], 25 mg/L (≈ 77.6 µM); in assay [5], 50 mg/L (≈ 155 µM).
As to `O=C(NCc1ccccc1)C(=O)c1c(-c2ccccc2)cc2ccccn12` [Example 182, N-Benzyl-2-oxo-2-(2-phenyl-indolizin-3-yl)-acetamide], the MIC in assay [1] was over 50 mg/L; in assay [2] it was 0.2 mg/L (≈ 0.564 µM); in assay [3], over 50 mg/L; in assay [4], over 50 mg/L; in assay [5] it was over 50 mg/L.
Take `CN(C)C(=O)C(=O)c1c(-c2ccccc2)cc2ccccn12` [Example 183, N,N-Dimethyl-2-oxo-2-(2-phenyl-indolizin-3-yl)-acetamide]: the MIC in assay [1] was over 50 mg/L; in assay [2] it was 12.5 mg/L (≈ 42.8 µM); in assay [3], 25 mg/L (≈ 85.5 µM); in assay [4], over 50 mg/L; in assay [5] it was over 50 mg/L.
`O=C(C(=O)N1CCCCC1)c1c(-c2ccccc2)cc2ccccn12` [Example 184, 1-(2-Phenyl-indolizin-3-yl)-2-piperidin-1-yl-ethane-1,2-dione]: the MIC in assay [1] amounted to 0.8 mg/L (≈ 2.41 µM); in assay [2], 6.25 mg/L (≈ 18.8 µM); in assay [3], 6.25 mg/L (≈ 18.8 µM); in assay [4], 50 mg/L (≈ 150 µM); in assay [5], 25 mg/L (≈ 75.2 µM).
For `CN(C(=O)C(=O)c1c(-c2ccccc2)cc2ccccn12)c1ccccc1` [Example 186, N-Methyl-2-oxo-N-phenyl-2-(2-phenyl-indolizin-3-yl)-acetamide], the MIC is 3.1 mg/L (≈ 8.75 µM) in assay [1]; 12.5 mg/L (≈ 35.3 µM) in assay [2]; 3.1 mg/L (≈ 8.75 µM) in assay [3]; 25 mg/L (≈ 70.5 µM) in assay [4]; 12.5 mg/L (≈ 35.3 µM) in assay [5].
For `CN(C(=O)C(=O)c1c(-c2cccnc2)cc2ccccn12)c1ccccc1` [Example 187, N-Methyl-2-oxo-N-phenyl-2-(2-pyridin-3-yl-indolizin-3-yl)-acetamide], the MIC in assay [1] was 3.1 mg/L (≈ 8.72 µM); in assay [2], over 50 mg/L; in assay [3], over 50 mg/L; in assay [4], over 50 mg/L; in assay [5], over 50 mg/L.
For the compound `Cc1ccc(NC(=O)C(=O)c2c(-c3ccccc3)cc3cccc(C)n23)cc1` [Example 188, 2-(5-Methyl-2-phenyl-indolizin-3-yl)-2-oxo-N-p-tolyl-acetamide], the MIC is 0.4 mg/L (≈ 1.09 µM) in assay [1]; 0.8 mg/L (≈ 2.17 µM) in assay [2]; 0.8 mg/L (≈ 2.17 µM) in assay [3]; 3.1 mg/L (≈ 8.41 µM) in assay [4]; 1.6 mg/L (≈ 4.34 µM) in assay [5].
`COc1ccc(NC(=O)C(=O)c2c(-c3ccccc3)cc3cccc(C)n23)cn1` [Example 189, N-(6-Methoxy-pyridin-3-yl)-2-(5-methyl-2-phenyl-indolizin-3-yl)-2-oxo-acetamide]: the MIC turned out to be 0.8 mg/L (≈ 2.08 µM) in assay [1]; 1.6 mg/L (≈ 4.15 µM) in assay [2]; 3.1 mg/L (≈ 8.04 µM) in assay [3]; 3.1 mg/L (≈ 8.04 µM) in assay [4]; 3.1 mg/L (≈ 8.04 µM) in assay [5].
Consider `Cc1ccc(NC(=O)C(=O)c2c(-c3ccccc3)cc3ccc(C)cn23)cc1` [Example 190, 2-(6-Methyl-2-phenyl-indolizin-3-yl)-2-oxo-N-p-tolyl-acetamide], for which the MIC in assay [1] was determined as 0.4 mg/L (≈ 1.09 µM); in assay [2], 0.1 mg/L (≈ 0.271 µM); in assay [3] it was 1.6 mg/L (≈ 4.34 µM); in assay [4], 0.4 mg/L (≈ 1.09 µM); in assay [5], 1.6 mg/L (≈ 4.34 µM).
For the compound `Cc1ccc(NC(=O)C(=O)c2c(-c3ccccc3)cc3cc(C)ccn23)cc1` [Example 191, 2-(7-Methyl-2-phenyl-indolizin-3-yl)-2-oxo-N-p-tolyl-acetamide], the MIC in assay [1] turned out to be 1.6 mg/L (≈ 4.34 µM); in assay [2] it was 0.2 mg/L (≈ 0.543 µM); in assay [3], 3.1 mg/L (≈ 8.41 µM); in assay [4], 0.8 mg/L (≈ 2.17 µM); in assay [5], 3.1 mg/L (≈ 8.41 µM).
Take `COc1ccc(NC(=O)C(=O)c2c(-c3ccccc3)cc3ccc(C)cn23)cn1` [Example 192, N-(6-Methoxy-pyridin-3-yl)-2-(6-methyl-2-phenyl-indolizin-3-yl)-2-oxo-acetamide]: the MIC in assay [1] was 0.8 mg/L (≈ 2.08 µM); in assay [2], 0.4 mg/L (≈ 1.04 µM); in assay [3] it was 1.6 mg/L (≈ 4.15 µM); in assay [4], 0.4 mg/L (≈ 1.04 µM); in assay [5], 1.6 mg/L (≈ 4.15 µM).
